# Reference: ChEMBL document CHEMBL5634124, “Discovery and optimization of indirubin derivatives as novel ferroptosis inducers for the treatment of colon cancer” (Eur J Med Chem, 2023)
# pIC50: −log10 of the molar value. Calls of active or inactive are those of the source. No cut-off for these calls is given here.
# Tests used:
# HCT-116 [1] = test: Cytotoxicity against human HCT-116 cells assessed as inhibition of cell viability incubated for 48 hrs by CCK8 assay; type: functional, cell-based; conditions: HCT-116, 48 h
# HCT-116 [2] = test: Induction of ferroptosis in human HCT-116 cells assessed as increase in intracellular lipid ROS level incubated for 24 hrs by CLSM analysis; type: functional, cell-based; conditions: dose <= 1.0 µM
# HCT-116 [3] = test: Effect on SLC7A11 expression in human HCT-116 cells; type: functional, cell-based
# HCT-116 [4] = test: Induction of ferroptosis in human HCT-116 cells assessed as increase in intracellular MDA level incubated for 24 hrs; type: functional, cell-based; conditions: dose <= 1.0 µM
# [5] = Toxicity in BALB/c nude mouse model xenografted with human HCT-116 cells assessed as morphological change in heart at 25 to 50 mg/kg, ip administered 4 times a week for 3 weeks by H and E staining based analysis; type: organism-based; conditions: in vivo, 504 h, dose 25-50 mg/kg
# HCT-116 [6] = test: Induction of ferroptosis in human HCT-116 cells assessed as increase in Fe2+ level upto 1 uM incubated for 24 hrs by flow cytometry; type: functional, cell-based
# HCT-116 [7] = test: In vivo inhibition of GPX4 in human HCT-116 cells xenografted in BALB/c nude mouse model at 25 to 50 mg/kg, ip administered 4 times a week for 3 weeks by IHC analysis; type: functional, organism-based; conditions: dose 25-50 mg/kg
# [8] = Kinetic solubility of compound at pH 7.4; type: physicochemical; conditions: buffer, read-out: Kinetic_solubility
# [9] = Toxicity in BALB/c nude mouse model xenografted with human HCT-116 cells assessed as morphological change in kidney at 25 to 50 mg/kg, ip administered 4 times a week for 3 weeks by H and E staining based analysis; type: organism-based; conditions: in vivo, 504 h, dose 25-50 mg/kg
# [10] = Metabolic stability in human liver microsomes assessed as hepatic clearance rate at 0.5 uM incubated for 45 mins by LC/MS analysis; type: ADME, Microsome
# [11] = molecular target: T1, Phospholipid hydroperoxide glutathione peroxidase GPX4 (Homo sapiens, UniProt P36969); test: Inhibition of GPX4 (unknown origin) incubated for 1 hr by absorbance based assay
# T1 sequence (P36969 whole entry): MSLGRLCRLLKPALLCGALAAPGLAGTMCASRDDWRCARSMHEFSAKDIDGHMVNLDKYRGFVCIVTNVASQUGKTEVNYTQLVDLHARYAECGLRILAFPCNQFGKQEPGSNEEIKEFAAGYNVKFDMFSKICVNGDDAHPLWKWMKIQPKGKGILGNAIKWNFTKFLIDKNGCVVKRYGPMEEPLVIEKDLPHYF
# [12] = molecular target: T2, Phospholipid hydroperoxide glutathione peroxidase GPX4 (Homo sapiens) (UniProt P36969); test: Inhibition of GPX4 in human HCT-116 cells assessed as increase in protein ubiquitination upto 1 uM incubated for 24 hrs by co-immunoprecipitation method; type: cell-based
# T2 sequence (whole entry): T1 sequence (P36969 whole entry)
# HCT-116 [13] = test: Effect on ACSL4 expression in human HCT-116 cells; type: functional, cell-based
# [14] = Toxicity in BALB/c nude mouse model xenografted with human HCT-116 cells assessed as morphological change in liver at 25 to 50 mg/kg, ip administered 4 times a week for 3 weeks by H and E staining based analysis; type: organism-based; conditions: in vivo, 504 h, dose 25-50 mg/kg
# HCT-116 [15] = test: Cytotoxicity against human HCT-116 cells assessed as inhibition of cell viability incubated for 48 hrs in presence of NAC by CCK8 assay; type: functional, cell-based
# HCT-116 [16] = test: Antitumor activity against human HCT-116 cells xenografted in BALB/c nude mouse model assessed as tumor growth inhibition at 50 mg/kg, ip administered 4 times a week for 3 weeks relative to control; type: functional; conditions: HCT-116, 504 h, read-out: TGI
# HCT-116 [17] = test: Cytotoxicity against human HCT-116 cells assessed as inhibition of cell viability incubated for 48 hrs in presence of DFO by CCK8 assay; type: functional, cell-based
# [18] = Toxicity in BALB/c nude mouse model xenografted with human HCT-116 cells assessed as morphological change in spleen at 25 to 50 mg/kg, ip administered 4 times a week for 3 weeks by H and E staining based analysis; type: organism-based; conditions: in vivo, 504 h, dose 25-50 mg/kg
# HCT-116 [19] = test: Induction of ferroptosis in human HCT-116 cells assessed as increase in intracellular lipid ROS level incubated for 24 hrs by flow cytometry; type: functional, cell-based; conditions: dose <= 1.0 µM
# HCT-116 [20] = test: Effect on NCOA4 expression in human HCT-116 cells; type: functional, cell-based
# HCT-116 [21] = test: Cytotoxicity against human HCT-116 cells assessed as inhibition of cell viability incubated for 48 hrs in presence of Z-VAD by CCK8 assay; type: functional, cell-based
# [22] = molecular target: T2, Phospholipid hydroperoxide glutathione peroxidase GPX4 (Homo sapiens); test: Inhibition of GPX4 in human HCT-116 cells at 0.5 uM by Western blot analysis; type: cell-based; conditions: time <= 48.0 hrs, TDE = time-dependent effect
# HCT-116 [23] = test: Cytotoxicity against human HCT-116 cells assessed as inhibition of cell viability incubated for 48 hrs in presence of Nec by CCK8 assay; type: functional, cell-based
# HCT-116 [24] = test: Effect on FSP1 expression in human HCT-116 cells; type: functional, cell-based
# HCT-116 [25] = test: Cytotoxicity against human HCT-116 cells assessed as inhibition of cell viability incubated for 48 hrs in presence of 3-MA by CCK8 assay; type: functional, cell-based
# [26] = Toxicity in BALB/c nude mouse model xenografted with human HCT-116 cells assessed as body weight loss at 25 to 50 mg/kg, ip administered 4 times a week for 3 weeks; type: organism-based; conditions: in vivo, 504 h, dose 25-50 mg/kg
# HCT-116 [27] = test: Induction of ferroptosis in human HCT-116 cells assessed as decrease in GSH level upto 1 uM incubated for 24 hrs; type: functional, cell-based
# HCT-116 [28] = test: Antitumor activity against human HCT-116 cells xenografted in BALB/c nude mouse model assessed as tumor growth inhibition at 25 mg/kg, ip administered 4 times a week for 3 weeks relative to control; type: functional; conditions: HCT-116, 504 h, read-out: TGI
# HCT-116 [29] = test: Inhibition of colony formation in human HCT-116 cells treated for 48 hrs followed by replacement of growth medium without compound every other day measured after 2 weeks by crystal violet staining based assay; type: functional, cell-based; conditions: dose <= 1.0 µM
# [30] = molecular target: T2, Phospholipid hydroperoxide glutathione peroxidase GPX4 (Homo sapiens); test: Inhibition of GPX4 in human HCT-116 cells incubated for 24 hrs by Western blot analysis; type: cell-based; conditions: dose <= 1.0 µM
# HCT-116 [31] = test: Antitumor activity against human HCT-116 cells xenografted in BALB/c nude mouse model assessed as morphological change in tumor at 25 to 50 mg/kg, ip administered 4 times a week for 3 weeks by H and E staining based analysis; type: functional, organism-based; conditions: dose 25-50 mg/kg
# [32] = Metabolic stability in human liver microsomes assessed as intrinsic clearance at 0.5 uM incubated for 45 mins by LC/MS analysis; type: ADME, Microsome; conditions: read-out: CLH
# [33] = Metabolic stability in human liver microsomes assessed as half life at 0.5 uM incubated for 45 mins by LC/MS analysis; type: ADME, Microsome
# [34] = Toxicity in BALB/c nude mouse model xenografted with human HCT-116 cells assessed as morphological change in lungs at 25 to 50 mg/kg, ip administered 4 times a week for 3 weeks by H and E staining based analysis; type: organism-based; conditions: in vivo, 504 h, dose 25-50 mg/kg
# HCT-116 [35] = test: Cytotoxicity against human HCT-116 cells assessed as inhibition of cell viability incubated for 48 hrs in presence of Fer-1 by CCK8 assay; type: functional, cell-based
smiles,measurement,setting,value
C=CC(=O)N1CCN(CCNC(=O)c2ccc3c(c2)C(=O)/C(=C2/C(=O)Nc4ccccc42)N3)CC1,pIC50,HCT-116 [1],4.76
O=C(CCl)CCC(=O)c1ccc2c(c1)C(=O)/C(=C1/C(=O)Nc3ccccc31)N2,pIC50,HCT-116 [1],< 4.70
C=CC(=O)N1CCN(NC(=O)c2ccc3c(c2)C(=O)/C(=C2/C(=O)Nc4ccccc42)N3)CC1,pIC50,HCT-116 [1],4.91
O=C1Nc2ccccc2/C1=C1/Nc2ccc(C(=O)NCC3CCN(C(=O)CCl)CC3)cc2C1=O,Activity,HCT-116 [2],Dose-Dependent Effect
same,Activity,HCT-116 [3],inactive
same,Activity,HCT-116 [4],Dose-Dependent Effect
same,Activity,[5],Non-Toxic
same,Activity,HCT-116 [6],Active
same,inhibition,HCT-116 [7],Active
same,solubility kinetic,[8],< 0.5 µg/mL
same,Activity,[9],Non-Toxic
same,CLhep predicted at 0.5 µM,[10],16.9 mL/min/kg
same,pIC50,[11],5.19
same,inhibition,[12],Active
same,Activity,HCT-116 [13],inactive
same,Activity,[14],Non-Toxic
same,inhibition,HCT-116 [15],inactive
same,inhibition in vivo at 50 mg/kg,HCT-116 [16],71.5%
same,inhibition,HCT-116 [17],inactive
same,Activity,[18],Non-Toxic
same,pIC50,HCT-116 [1],6.31
same,Activity,HCT-116 [19],Dose-Dependent Effect
same,Activity,HCT-116 [20],inactive
same,inhibition,HCT-116 [21],Active
same,inhibition,[22],Tde
same,inhibition,HCT-116 [23],Active
same,Activity,HCT-116 [24],inactive
same,inhibition,HCT-116 [25],Active
same,Activity,[26],Non-Toxic
same,Activity,HCT-116 [27],Active
same,inhibition in vivo at 25 mg/kg,HCT-116 [28],63.4%
same,inhibition,HCT-116 [29],Dose-Dependent Effect
same,inhibition,[30],Dose-Dependent Effect
same,Activity,HCT-116 [31],Active
same,CLint scaled at 0.5 µM,[32],95.5 mL/min/kg
same,half-life at 0.5 µM,[33],17.1 min
same,Activity,[34],Non-Toxic
same,inhibition,HCT-116 [35],inactive
C=CC(=O)N1CCN(C(=O)c2ccc3c(c2)C(=O)/C(=C2/C(=O)Nc4ccccc42)N3)CC1,pIC50,HCT-116 [1],4.76
C=CC(=O)CCC(=O)c1ccc2c(c1)C(=O)/C(=C1/C(=O)Nc3ccccc31)N2,pIC50,HCT-116 [1],< 4.70
C#CC(=O)CCC(=O)c1ccc2c(c1)C(=O)/C(=C1/C(=O)Nc3ccccc31)N2,pIC50,HCT-116 [1],< 4.70
O=C(CCl)CCCCC(=O)c1ccc2c(c1)C(=O)/C(=C1/C(=O)Nc3ccccc31)N2,pIC50,HCT-116 [1],5.76
CC(=O)N1CCC(NC(=O)c2ccc3c(c2)C(=O)/C(=C2/C(=O)Nc4ccccc42)N3)CC1,pIC50,HCT-116 [1],5.39
O=C1Nc2ccccc2/C1=C1/Nc2ccc(C(=O)NC3CCN(C(=O)CCl)CC3)cc2C1=O,pIC50,HCT-116 [1],5.74
C#CC(=O)N1CCN(c2ccc(NC(=O)c3ccc4c(c3)C(=O)/C(=C3/C(=O)Nc5ccccc53)N4)cc2)CC1,pIC50,HCT-116 [1],< 4.70
C#CC(=O)N1CCC(CNC(=O)c2ccc3c(c2)C(=O)/C(=C2/C(=O)Nc4ccccc42)N3)CC1,pIC50,HCT-116 [1],6.00
C=CC(=O)N1CCN(c2ccc(NC(=O)c3ccc4c(c3)C(=O)/C(=C3/C(=O)Nc5ccccc53)N4)cc2)CC1,pIC50,HCT-116 [1],< 4.70
C=CC(=O)CCCC(=O)c1ccc2c(c1)C(=O)/C(=C1/C(=O)Nc3ccccc31)N2,pIC50,HCT-116 [1],< 4.70
O=C1Nc2ccccc2/C1=C1/Nc2ccccc2C1=O [INDIRUBIN],solubility kinetic,[8],4.01 µg/mL
same,CLhep predicted at 0.5 µM,[10],16 mL/min/kg
same,pIC50,HCT-116 [1],4.71
same,CLint scaled at 0.5 µM,[32],70.2 mL/min/kg
same,half-life at 0.5 µM,[33],22.8 min
C#CC(=O)N1CCN(NC(=O)c2ccc3c(c2)C(=O)/C(=C2/C(=O)Nc4ccccc42)N3)CC1,pIC50,HCT-116 [1],5.46
C#CC(=O)N1CCN(CCNC(=O)c2ccc3c(c2)C(=O)/C(=C2/C(=O)Nc4ccccc42)N3)CC1,pIC50,HCT-116 [1],5.20
